Legend:
Assay in all cases: relative viability (nuclei count vs DMSO), 5 days (fraction); higher = more cells survive
Kobe2602 + Foretinib = compound: C1=CC(=CC=C1NC(=S)NNC2=C(C=C(C=C2[N+](=O)[O-])C(F)(F)F)[N+](=O)[O-])F [Kobe2602] + COc1cc2c(Oc3ccc(NC(=O)C4(C(=O)Nc5ccc(F)cc5)CC4)cc3F)ccnc2cc1OCCCN1CCOCC1 [Foretinib] (partner 0.25 µM)
Procedure, shortened: (§1)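 For relative viability, nuclei counts in treated wells were divided by those in vehicle wells. Lung cancer cell lines had been pin-tool dosed in 1536-well plates the day after seeding and cultured for 5 days, then fixed and stained in one step (final 0.05% Triton X-100, 1% formaldehyde, 1 ug/ml Hoechst) and imaged at 4×. Doses were one drug alone or a fixed anchor-drug dose plus five library-drug doses (not always all listed) in √10 steps, and values are duplicate-plate medians.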

[1] = compound: COc1cc2nccc(Oc3ccc(NC(=O)C4(C(=O)Nc5ccc(F)cc5)CC4)cc3)c2cc1OC [Cabozantinib] + CCNC(=O)c1noc(-c2cc(C(C)C)c(O)cc2O)c1-c1ccc(CN2CCOCC2)cc1 [Luminespib] (partner 0.01 µM)
Procedure, shortened: as §1

Cabozantinib + Foretinib = compound: COc1cc2nccc(Oc3ccc(NC(=O)C4(C(=O)Nc5ccc(F)cc5)CC4)cc3)c2cc1OC [Cabozantinib] + COc1cc2c(Oc3ccc(NC(=O)C4(C(=O)Nc5ccc(F)cc5)CC4)cc3F)ccnc2cc1OCCCN1CCOCC1 [Foretinib] (partner 0.25 µM)
Procedure, shortened: as §1

Zosuquidar + AZD7762 = compound: O[C@@H](COc1cccc2ncccc12)CN1CCN([C@@H]2c3ccccc3[C@@H]3[C@H](c4ccccc42)C3(F)F)CC1 [Zosuquidar] + NC(=O)Nc1cc(-c2cccc(F)c2)sc1C(=O)N[C@H]1CCCNC1 [AZD7762] (partner 0.2 µM)
Procedure, shortened: as §1

Cell Line	relative viability (Kobe2602 + Foretinib; first compound 0.2 µM)	relative viability (Kobe2602 + Foretinib; first compound 0.6325 µM)	relative viability (Kobe2602 + Foretinib; first compound 2 µM)	relative viability (Kobe2602 + Foretinib; first compound 6.325 µM)	relative viability (Kobe2602 + Foretinib; first compound 20 µM)	relative viability ([1]; first compound 0.02 µM)	relative viability ([1]; first compound 0.06325 µM)	relative viability ([1]; first compound 0.6325 µM)	relative viability ([1]; first compound 2 µM)	relative viability (Cabozantinib + Foretinib; first compound 0.02 µM)	relative viability (Cabozantinib + Foretinib; first compound 0.06325 µM)	relative viability (Cabozantinib + Foretinib; first compound 0.6325 µM)	relative viability (Cabozantinib + Foretinib; first compound 2 µM)	relative viability (Zosuquidar + AZD7762; first compound 0.01 µM)	relative viability (Zosuquidar + AZD7762; first compound 0.03162 µM)	relative viability (Zosuquidar + AZD7762; first compound 0.1 µM)	relative viability (Zosuquidar + AZD7762; first compound 0.3162 µM)	relative viability (Zosuquidar + AZD7762; first compound 1 µM)	relative viability ([1]; first compound 0.2 µM)	relative viability (Cabozantinib + Foretinib; first compound 0.2 µM)
H3255	0.946	0.834	0.784	0.882	0.944	0.885	1.13	0.905	0.893	0.773	1.01	0.979	1.07	1.03	0.832	0.766	0.95	0.795	–	–
EMC-BAC-2	0.938	1.03	0.99	1.04	1.02	1.23	1.15	1.1	1.09	1.02	0.973	0.982	0.962	1.1	1.15	1.11	1.26	0.979	1.24	1.04
SW 900	0.979	0.926	0.821	0.854	0.993	0.17	0.19	0.177	0.166	0.848	0.952	0.695	0.968	0.597	0.782	–	0.668	0.636	0.2	0.837
CAL-12T	1.02	1.02	1.09	1.05	1.06	0.832	0.574	0.581	1.37	1.22	1.31	1.08	1.18	0.586	0.626	0.469	0.632	0.738	0.37	1.17
NCI-H838	0.934	1.13	0.93	0.971	1.03	0.369	0.342	0.259	0.34	1.13	1.08	1.02	1.01	0.939	0.997	0.898	0.948	0.904	0.3	1.04
NCI-H1944	0.891	0.91	0.847	0.885	0.976	0.739	0.818	0.719	0.762	1.04	0.938	0.895	0.867	0.496	0.565	0.479	0.62	0.511	0.754	0.9
NCI-H1437	1.28	1.28	1.15	1.23	1.09	1.14	1.14	1.09	1	1.29	1.37	1.27	1.21	1.19	1.16	1.14	1.03	1.19	1.13	1.29
RERF-LC-KJ	0.878	0.952	0.828	0.777	0.763	1.32	1.31	1.19	1.23	0.921	0.852	0.899	0.943	1.02	0.882	0.895	1.05	0.811	1.19	0.863
